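Method: 48-hour compound exposure of cells in 96-well plates, five concentrations, linear interpolation of endpoints. The concentration for 50% growth inhibition is given as GI50.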 The source made the active and inactive calls. No stated cut-off is given here; in the data, active = GI50 up to about 1.1 µM and inactive = higher.
Legend:
Assay in all cases: growth of human tumour cells (NCI), 48 h
SR = tested on: SR
HL-60 = tested on: HL-60
TK-10 = tested on: TK-10
HOP-92 = tested on: HOP-92
T47D = tested on: T47D
A498 = tested on: A498
SNB-75 = tested on: SNB-75
CAKI-1 = tested on: CAKI-1
MCF7 = tested on: MCF7
OVCAR-5 = tested on: OVCAR-5
NCI/ADR-RES = tested on: NCI/ADR-RES

Compound: COC(Cc1cc(C(O)(c2ccc(C(C)(C)C)cc2)c2cc(CC(OC)(c3cc(C(OC)(c4ccc(C(C)(C)C)cc4)c4ccc(C(C)(C)C)cc4)c(C)cc3C)c3cc(C(OC)(c4ccc(C(C)(C)C)cc4)c4ccc(C(C)(C)C)cc4)c(C)cc3C)c(C)cc2C)c(C)cc1C)(c1cc(C(OC)(c2ccc(C(C)(C)C)cc2)c2ccc(C(C)(C)C)cc2)c(C)cc1C)c1cc(C(OC)(c2ccc(C(C)(C)C)cc2)c2ccc(C(C)(C)C)cc2)c(C)cc1C
- GI50 (SR): > 75 µM (inactive)
- GI50 (HL-60): > 75 µM (inactive)
- GI50 (TK-10): > 75 µM (inactive)
- GI50 (HOP-92): > 75 µM (inactive)
- GI50 (T47D): > 75 µM (inactive)
- GI50 (A498): > 75 µM (inactive)
- GI50 (SNB-75): > 75 µM (inactive)
- GI50 (CAKI-1): > 75 µM (inactive)
- GI50 (MCF7): > 75 µM (inactive)
- GI50 (OVCAR-5): > 75 µM (inactive)
- GI50 (NCI/ADR-RES): > 75 µM (inactive)

Compound: CC(=O)/N=C1\N/C(=C\c2ccc(Cl)cc2)C(=O)N1/C=C1\C(=O)Oc2ccccc2C1=O
- GI50 (SR): 52.2 µM (inactive)
- GI50 (HL-60): > 100 µM (inactive)
- GI50 (T47D): > 100 µM (inactive)
- GI50 (A498): 10.8 µM (inactive)
- GI50 (SNB-75): 27.5 µM (inactive)
- GI50 (CAKI-1): > 100 µM (inactive)
- GI50 (MCF7): > 100 µM (inactive)
- GI50 (OVCAR-5): > 100 µM (inactive)
- GI50 (NCI/ADR-RES): > 100 µM (inactive)

Compound: Cc1cc(C)c(S(=O)(=O)N(CCCCCN)OCCCN)c(C)c1
- GI50 (SR): 12.7 µM (inactive)
- GI50 (TK-10): 17 µM (inactive)
- GI50 (HOP-92): 15.9 µM (inactive)
- GI50 (T47D): 20.6 µM (inactive)
- GI50 (SNB-75): 15.3 µM (inactive)
- GI50 (CAKI-1): 17.4 µM (inactive)
- GI50 (MCF7): 17.1 µM (inactive)
- GI50 (OVCAR-5): 17.9 µM (inactive)
- GI50 (NCI/ADR-RES): 18 µM (inactive)

Compound: OC(c1ccc(-c2ccccc2)cc1)(c1ccc(-c2ccccc2)cc1)c1ccc(-c2ccccc2)cc1
- GI50 (SR): > 100 µM (inactive)
- GI50 (HL-60): > 10 µM (inactive)
- GI50 (TK-10): > 100 µM (inactive)
- GI50 (T47D): > 100 µM (inactive)
- GI50 (CAKI-1): > 100 µM (inactive)
- GI50 (MCF7): > 100 µM (inactive)
- GI50 (OVCAR-5): > 100 µM (inactive)
- GI50 (NCI/ADR-RES): > 100 µM (inactive)

Compound: COc1cc(CNc2nc3cc(C(F)(F)F)ccc3nc2-c2ccccc2)cc(OC)c1OC
- GI50 (SR): 15.9 µM (inactive)
- GI50 (HL-60): 18.5 µM (inactive)
- GI50 (TK-10): > 100 µM (inactive)
- GI50 (T47D): 1.65 µM (inactive)
- GI50 (SNB-75): 5.79 µM (inactive)
- GI50 (CAKI-1): 39.4 µM (inactive)
- GI50 (MCF7): 1.52 µM (inactive)
- GI50 (NCI/ADR-RES): 14.8 µM (inactive)

Compound: Cc1ccc([N+](=O)[O-])cc1S(=O)(=O)Nc1ccc(C2=NNC(c3ccccc3O)C2)cc1 (stereo not drawn)
- GI50 (SR): 23.9 µM (inactive)
- GI50 (HL-60): 12.1 µM (inactive)
- GI50 (TK-10): 0.416 µM (active)
- GI50 (HOP-92): 79.3 µM (inactive)
- GI50 (T47D): 17.3 µM (inactive)
- GI50 (A498): 19.9 µM (inactive)
- GI50 (SNB-75): 33.2 µM (inactive)
- GI50 (CAKI-1): 25.1 µM (inactive)
- GI50 (MCF7): 23.1 µM (inactive)
- GI50 (OVCAR-5): 32.4 µM (inactive)
- GI50 (NCI/ADR-RES): 24.8 µM (inactive)

Compound: O=c1c2c(nc3[nH]ccn13)CCCC2
- GI50 (SR): > 10 µM (inactive)
- GI50 (HL-60): > 10 µM (inactive)
- GI50 (TK-10): > 10 µM (inactive)
- GI50 (T47D): > 10 µM (inactive)
- GI50 (A498): > 10 µM (inactive)
- GI50 (SNB-75): > 10 µM (inactive)
- GI50 (CAKI-1): > 10 µM (inactive)
- GI50 (MCF7): > 10 µM (inactive)
- GI50 (OVCAR-5): > 10 µM (inactive)
- GI50 (NCI/ADR-RES): > 10 µM (inactive)

Compound: CC1(C(=O)O)CCC(C(=O)O)C(C)(C)O1 (stereo not drawn)
- GI50 (TK-10): > 100 µM (inactive)
- GI50 (HOP-92): > 100 µM (inactive)
- GI50 (T47D): > 100 µM (inactive)
- GI50 (SNB-75): > 100 µM (inactive)
- GI50 (CAKI-1): > 100 µM (inactive)
- GI50 (MCF7): > 100 µM (inactive)
- GI50 (OVCAR-5): > 100 µM (inactive)
- GI50 (NCI/ADR-RES): > 100 µM (inactive)

Compound: CN(C)c1ccc2nc(CC(O)(C(F)(F)F)C(F)(F)F)ccc2c1
- GI50 (TK-10): > 10 µM (inactive)
- GI50 (HOP-92): > 10 µM (inactive)
- GI50 (T47D): > 10 µM (inactive)
- GI50 (A498): > 10 µM (inactive)
- GI50 (SNB-75): > 10 µM (inactive)
- GI50 (CAKI-1): > 10 µM (inactive)
- GI50 (MCF7): > 10 µM (inactive)
- GI50 (OVCAR-5): > 10 µM (inactive)
- GI50 (NCI/ADR-RES): > 10 µM (inactive)

Compound: COC1=C2CC(C)CC(OC)C(OC(=O)CN)[C@H](C)/C=C(\C)C(OC(N)=O)C(OC)/C=C\C=C(/C)C(=O)NC(=CC1=O)C2=O (stereo partly drawn)
- GI50 (SR): 0.321 µM (active)
- GI50 (HL-60): 0.123 µM (active)
- GI50 (TK-10): 0.519 µM (active)
- GI50 (HOP-92): 0.163 µM (active)
- GI50 (T47D): 0.281 µM (active)
- GI50 (A498): 12.1 µM (inactive)
- GI50 (CAKI-1): 1.46 µM (inactive)
- GI50 (MCF7): 0.339 µM (active)
- GI50 (OVCAR-5): 1.03 µM (active)
- GI50 (NCI/ADR-RES): 9.62 µM (inactive)

Reference: ChEMBL document CHEMBL1201862, “PubChem BioAssay data set” (2004)
